Experimental findings from ChEMBL document CHEMBL1201862, “PubChem BioAssay data set” (2004) are described below.

SMILES strings stand for the structures.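 Tested at 5 concentrations; 48 h exposure; 96-well plates; endpoints linearly interpolated, else capped at highest concentration. GI50: concentration for 50% inhibition of growth.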 The source made the active and inactive calls. No stated cut-off is given here; in the data, active = GI50 up to about 1.1 µM and inactive = higher.

Some test systems named below: HT-29; SR; BT-549; SK-MEL-2; RPMI-8226; SNB-75; U-251; OVCAR-5; CAKI-1; T47D; 786-0; MDA-N; ACHN; MOLT-4; UACC-62; SN12C; PC-3; OVCAR-8; NCI-H226; NCI-H522.
Common to all, as to experiment: DTP human tumour cell line panel, 48 h

As to `Cc1c(/N=N/c2ccccc2)c(C)n(C2OC(CO)C(O)C(O)C2O)c(=S)c1C#N` (stereo unspecified), the GI50 in the assay with HT-29 is 32.7 µM (inactive); in the assay with SR, 21.4 µM (inactive); in the assay on BT-549, 19.9 µM (inactive); with SK-MEL-2, 16.2 µM (inactive); in the assay with RPMI-8226, 40.2 µM (inactive); in the assay on SNB-75, 42.2 µM (inactive). In addition, the GI50 is 23.2 µM (inactive) in the assay with U-251; 15.1 µM (inactive) in the assay on OVCAR-5; 40.2 µM (inactive) in the assay with CAKI-1; 39.2 µM (inactive) with T47D; 31.6 µM (inactive) in the assay on 786-0; 19.9 µM (inactive) with MDA-N. For the same compound, the GI50 is 30.5 µM (inactive) in the assay with ACHN; 20.8 µM (inactive) in the assay with MOLT-4; 1.15 µM (inactive) in the assay on UACC-62; 20.7 µM (inactive) with SN12C; 24 µM (inactive) in the assay with PC-3.
For `CC1(C)C(=O)C(C)(C)C12SSC1(S2)C(C)(C)C(=O)C1(C)C`, the GI50 with OVCAR-8 was > 100 µM (inactive); with HT-29, > 100 µM (inactive); with SR, > 100 µM (inactive); with BT-549, > 100 µM (inactive); in the assay with SK-MEL-2, > 100 µM (inactive); in the assay with RPMI-8226 it was 65.9 µM (inactive). The GI50 with SNB-75, with U-251, with OVCAR-5, in the assay with CAKI-1, with T47D and with 786-0 was > 100 µM (inactive) throughout. The GI50 in the assay on MDA-N is > 100 µM (inactive); in the assay on ACHN it was > 100 µM (inactive); in the assay with NCI-H226, 42.6 µM (inactive); with MOLT-4 it was 71.4 µM (inactive); in the assay with UACC-62, > 100 µM (inactive); in the assay on SN12C, > 100 µM (inactive). In addition, in the assay with PC-3, the GI50 was 84.5 µM (inactive).
For `Oc1c2ccccc2c2c3c(cccc13)N=N2` [SP-600125], the GI50 is 22 µM (inactive) with OVCAR-8; 25.9 µM (inactive) in the assay on HT-29; 13.1 µM (inactive) in the assay on SR; 30.8 µM (inactive) with BT-549; 29 µM (inactive) in the assay with SK-MEL-2; 18.8 µM (inactive) in the assay on RPMI-8226. In addition, the GI50 with NCI-H522 was 12.2 µM (inactive); in the assay on SNB-75, 16.9 µM (inactive); in the assay with U-251, 23.1 µM (inactive); with OVCAR-5, 24.4 µM (inactive); in the assay on CAKI-1 it was 3.56 µM (inactive); in the assay on T47D, > 100 µM (inactive). Besides, the GI50 was 27.1 µM (inactive) in the assay with 786-0; 15 µM (inactive) in the assay with MDA-N; 6.64 µM (inactive) in the assay with ACHN; 22.9 µM (inactive) with NCI-H226; 20.4 µM (inactive) in the assay with MOLT-4; 14.6 µM (inactive) with UACC-62. The GI50 is 14.8 µM (inactive) with SN12C and 23.3 µM (inactive) in the assay with PC-3.
As for `N#CCc1nc(-c2ccccc2)n[nH]1`, the GI50 in the assay with OVCAR-8, in the assay with HT-29, with SR, with BT-549, in the assay with SK-MEL-2 and with NCI-H522 was > 100 µM (inactive) in each case. In addition, the GI50 in the assay with SNB-75, in the assay with OVCAR-5, with CAKI-1, in the assay on T47D, in the assay on 786-0 and in the assay with MDA-N was > 100 µM (inactive) throughout. The GI50 in the assay on ACHN, in the assay with MOLT-4, with UACC-62, in the assay on SN12C and with PC-3 was > 100 µM (inactive) each time.
On to `NCc1ccc(C(=O)O)cc1` [AMINOMETHYLBENZOIC ACID], for which the GI50 in the assay on OVCAR-8, in the assay on HT-29, in the assay on SR, in the assay on BT-549, in the assay with NCI-H522 and in the assay with U-251 was > 100 µM (inactive) in each case. The GI50 in the assay with OVCAR-5, in the assay with CAKI-1, with T47D, with 786-0, in the assay on MDA-N and with ACHN was > 100 µM (inactive) in each case. Further, the GI50 in the assay on NCI-H226, in the assay on MOLT-4, in the assay with UACC-62, in the assay on SN12C and in the assay on PC-3 was > 100 µM (inactive) throughout.
With `Oc1cc(O)c2c(c1)O[C@H](c1cc(O)c(O)c(O)c1)[C@H](O)C2` [EPIGALLOCATECHIN], the GI50 with OVCAR-8 was 16.1 µM (inactive); in the assay on SR, 14.4 µM (inactive); in the assay on BT-549, 19.2 µM (inactive); with SK-MEL-2, 7.96 µM (inactive); in the assay with RPMI-8226, 13.8 µM (inactive); with NCI-H522, 17.7 µM (inactive). For the same compound, the GI50 is 31.6 µM (inactive) in the assay on SNB-75; 16.4 µM (inactive) in the assay on U-251; 15.6 µM (inactive) with OVCAR-5; 33.1 µM (inactive) in the assay on CAKI-1; 37.2 µM (inactive) with T47D; 18.2 µM (inactive) with 786-0. Further, the GI50 in the assay with MDA-N was 18.8 µM (inactive); in the assay on ACHN, 21.2 µM (inactive); in the assay on NCI-H226, 26.4 µM (inactive); in the assay on MOLT-4, 14.6 µM (inactive); in the assay on SN12C, 20.5 µM (inactive); in the assay on PC-3, 16.5 µM (inactive).
Consider `O=C(O)c1nc2cc(Cl)ccc2[nH]c1=O`, for which the GI50 with OVCAR-8, with HT-29, in the assay with SR, in the assay on BT-549, in the assay on SK-MEL-2 and in the assay on RPMI-8226 was > 100 µM (inactive) in each case. Besides, the GI50 in the assay on NCI-H522, in the assay with U-251, in the assay with OVCAR-5, in the assay on CAKI-1, in the assay with T47D and in the assay with 786-0 was > 100 µM (inactive) in each case. For the same compound, the GI50 in the assay on MDA-N, in the assay with ACHN, with NCI-H226, in the assay on MOLT-4, in the assay on UACC-62 and in the assay on SN12C was > 100 µM (inactive) in each case. Also, the GI50 in the assay on PC-3 is > 100 µM (inactive).
Consider `COc1ccc(-c2ncnc(-c3ccc(OC)c(OC)c3)n2)cc1OC`, for which the GI50 in the assay on OVCAR-8 is > 100 µM (inactive); in the assay with HT-29, > 100 µM (inactive); in the assay with SR, 45.2 µM (inactive); in the assay with BT-549 it was > 100 µM (inactive); with SK-MEL-2 it was > 100 µM (inactive); in the assay with RPMI-8226 it was > 10 µM (inactive). For the same compound, the GI50 in the assay on NCI-H522, with SNB-75, in the assay with U-251, in the assay with OVCAR-5, with CAKI-1 and in the assay on T47D was > 100 µM (inactive) in each case. Besides, the GI50 in the assay with 786-0, in the assay on MDA-N, with ACHN, in the assay with NCI-H226, in the assay on UACC-62 and with SN12C was > 100 µM (inactive) in each case. For the same compound, in the assay on PC-3, the GI50 was > 100 µM (inactive).
Take `O=C(CCCN1CCC2(CC1)CC(=O)N(N1CCCCCC1)C2=O)c1ccc(F)cc1`: the GI50 is 18.5 µM (inactive) in the assay on OVCAR-8; 16.4 µM (inactive) with HT-29; 29.2 µM (inactive) in the assay with SR; 65.5 µM (inactive) with BT-549; > 100 µM (inactive) in the assay on SK-MEL-2; 58.5 µM (inactive) in the assay with RPMI-8226. Also, the GI50 in the assay with NCI-H522 was 52.7 µM (inactive); with SNB-75 it was 50.8 µM (inactive); with U-251 it was > 100 µM (inactive); in the assay with OVCAR-5, 41.7 µM (inactive); in the assay on CAKI-1, 81.5 µM (inactive); with T47D, 77.1 µM (inactive). Moreover, the GI50 in the assay with 786-0 is 20.8 µM (inactive); in the assay with MDA-N, > 100 µM (inactive); in the assay on ACHN it was > 100 µM (inactive); with MOLT-4, 36.1 µM (inactive); with UACC-62, > 100 µM (inactive); with SN12C it was > 100 µM (inactive). Moreover, the GI50 in the assay with PC-3 was > 100 µM (inactive).
Regarding `CN(C(=O)Cc1ccccc1)n1cn[n+](CC(=O)OC(C)(C)C)c1`, the GI50 was > 10 µM (inactive) with OVCAR-8; > 10 µM (inactive) in the assay on HT-29; > 10 µM (inactive) in the assay with SR; > 10 µM (inactive) in the assay with BT-549; 0.00119 µM (active) in the assay on RPMI-8226; > 10 µM (inactive) in the assay with NCI-H522. Further, the GI50 with U-251, with OVCAR-5, with CAKI-1, in the assay with T47D, in the assay on 786-0 and in the assay with MDA-N was > 10 µM (inactive) each time. For the same compound, the GI50 with ACHN, in the assay with NCI-H226, in the assay with MOLT-4, in the assay with UACC-62, with SN12C and in the assay on PC-3 was > 10 µM (inactive) each time.
Consider `COc1cccc(/C=N/C(/N=C/c2cccc(OC)c2O)c2cccc(OC)c2O)c1O`, for which the GI50 in the assay with OVCAR-8 was 12.6 µM (inactive); in the assay on HT-29, 24.4 µM (inactive); with SR it was 6.38 µM (inactive); in the assay on BT-549, 19.6 µM (inactive); with SK-MEL-2 it was 14.8 µM (inactive); in the assay on RPMI-8226 it was 22 µM (inactive). The GI50 with NCI-H522 was 21.8 µM (inactive); in the assay with SNB-75, 13.9 µM (inactive); with U-251 it was 15.6 µM (inactive); in the assay with OVCAR-5, 22 µM (inactive); in the assay with CAKI-1, 19.6 µM (inactive); in the assay on T47D it was 15.2 µM (inactive). Also, the GI50 with 786-0 is 23.3 µM (inactive); in the assay on MDA-N, 26.4 µM (inactive); in the assay on ACHN, 21.5 µM (inactive); in the assay with UACC-62, 24.2 µM (inactive); in the assay with SN12C, 19.2 µM (inactive); with PC-3 it was 26 µM (inactive).
